# Measured values published in patent US9408910B2, “Anticancer prodrug activated by radiation or ultraviolet treatment and use thereof” (priority 2011, dated 2016).
# Numbered stars: 1 amine (or outer) side, 2 acyl side, 3 side chain; on linkers, the order of the positions; unused ones are H or OH. Square brackets hold non-standard residues; d marks the D form. Peptide text beside a SMILES is read from it. * marks the point of attachment. Doxorubicin(3'-N) = COc1cccc2c1C(=O)c1c(O)c3c(c(O)c1C2=O)C[C@@](O)(C(=O)CO)C[C@@H]3O[C@H]1C[C@H](N*)[C@H](O)[C@H](C)O1; PABC = O=C(OCc1ccc(N[*:1])cc1)[*:2]
# Assays:
# SCC 7 cells = experiment: Cytotoxicity evaluation by in vitro MTT assay (Example 4); assay type: cell-based; settings: no caspase-3 expression
# Procedure: Cytotoxicity was evaluated by in vitro MTT assay.
# In detail, SCC 7 cells were radiated at a dose of 1 Gy, 5 Gy, or 10 Gy, and then the medium was removed after 2 h, 6 h, 12 h, 24 h, or 48 h. 20 μl of MTT solution per 100 μl of medium was treated, and then reacted at 30° C. for 1 hour in the dark. Thereafter, the cells were washed with PBS three times, and the medium was removed. 100 μl of DMSO was added to dissolve MTT formazan, followed by ELASA (test wavelength: 570 nm).
# That is, total 6 experiments were carried out, and the results are shown FIGS. 9a to 9f. a) Radiation of cells at a radiation dose of 1 Gy, 5 Gy, 10 Gy, 15 Gy, 20 Gy, followed by MTT assay (radiation MTT assay), b) Treatment of cells with doxorubicin at a dose of 0.1 μM, 0.5 μM, 1 μM, and 5 μM, followed by MTT assay (Doxorubicin MIT assay), c) Treatment of cells with anticancer prodrug (KGDEVD-DOX) prepared in Example 1, followed by MTT assay (KGDEVD-DOX MTT assay), d) Treatment of cells with caspase-3-treated anticancer prodrug (KGDEVD-DOX) prepared in Example 1, followed by MIT assay (Cleaved Dox by Caspase-3 MIT assay), e) Treatment of cells with doxorubicin and radiation, followed by MIT assay (Doxorubicin+RT MTT assay), f) Treatment of cells with […], followed by MTT assay (KGDEVD-DOX+RT MTT assay). […]
# [1] = system: tumor mouse models transplanted with SCC 7 cell line; settings: 5 Gy radiation, then 10 mg/kg i.v. every day for 3 days; FIG. 18
# Procedure: That is, tumor mouse models transplanted with SCC 7 cell line were radiated using a gamma knife (5 Gy). 24 hrs after radiation, the caspase-3 sensitive anticancer prodrug was administered into the animals via intravenous injection (10 mg/kg). At this time, the same dose of the drug was administered into the animals every day for 3 days, and then tumor growth and survival rate were measured every day until the experiments were terminated after radiation. The organs were removed from each experimental group after completion of the experiment, and cytotoxicity of the drug was examined.
# [2] = system: tumor mouse models transplanted with SCC 7 cell line; experiment: Anti-tumor therapeutic effect of the anticancer prodrug with radiation (Example 3); assay type: in vivo; settings: administered together with radiation (5 Gy, gamma knife); prodrug 3 mg/kg i.v. 24 hr after radiation and again after 2 days; FIG. 8
Compound,cytotoxicity when caspase-3 was not expressed (SCC 7 cells),side effects (cytotoxicity of the drug in removed organs) [1],tumor size (tumor growth) [2]
"COc1cccc2c1C(=O)c1c(O)c3c(c(O)c1C2=O)C[C@@](O)(C(=O)CO)C[C@@H]3O[C@H]1C[C@H](NC(=O)OCc2ccc(NC(=O)[C@H](CC(=O)O)NC(=O)[C@@H](NC(=O)[C@H](CCC(=O)O)NC(=O)[C@H](CC(=O)O)NC(=O)CNC(=O)[C@H](CCCCN)NC(C)=O)C(C)C)cc2)[C@H](O)[C@H](C)O1 [KGDEVD-DOX, Ac-Lys-Gly-Asp-Glu-Val-Asp-PABC-DOX] (Ac-KGDEVD[PABC]-{Doxorubicin(3'-N)})",no cytotoxicity,reduced side effects,
COc1cccc2c1C(=O)c1c(O)c3c(c(O)c1C2=O)C[C@@](O)(C(=O)CO)C[C@@H]3O[C@H]1C[C@H](N)[C@H](O)[C@H](C)O1 [doxorubicin],,,tumor was reduced in size
